Experimental data reported in patent US20020094522A1, “Means and methods for monitoring non-nucleoside reverse transcriptase inhibitor antiretroviral therapy and guiding therapeutic decisions in the treatment of HIV/AIDS” (priority 2000, published 2002).
Like-named read-outs stand apart in the source and are kept apart here.

Legend:
[1] = test system: Y188L-RTV (HIV reverse transcriptase Y188L); assay: Phenotypic susceptibility assay, Y188L-RTV; assay type: cell-based, HIV-1; details: site directed mutant
Excerpt: (§1) The resistance test vectors containing a functional luciferase gene cassette were constructed and host cells were transfected with the resistance test vector DNA. The resistant test vectors contained patient-derived reverse transcriptase and protease sequences that were either susceptible or resistant to the antiretroviral agents, such as nucleoside reverse transcriptase inhibitors, non-nucleoside reverse transcriptase inhibitors and protease inhibitors. The resistance test vector viral particles produced by transfecting the resistance test vector DNA into host cells, either in the presence or absence of protease inhibitors, were used to infect target host cells grown either in the absence of NRTI or NNRTI or in the presence of increasing concentrations of the drug. The amount of luciferase activity produced in infected target host cells in the presence of drug was compared to the amount of luciferase produced in infected target host cells in the absence of drug. Drug resistance was measured as the amount of drug required to inhibit by 50% the luciferase activity detected in the absence of drug (inhibitory concentration 50%, IC50). The IC50 values were determined by plotting percent drug inhibition vs. log10 drug concentration.
(§2) Host cells were seeded in 10-cm-diameter dishes and were transfected several days after plating with resistance test vector plasmid DNA and the envelope expression vector. Transfections were performed using a calcium-phosphate precipitation procedure. The cell culture media containing the DNA precipitate was replaced with fresh medium, from one to 24 hours, after transfection. Cell culture media containing resistance test vector viral particles was harvested one to four days after transfection and was passed through a […] filter before being stored at −80° C. HIV capsid protein (p24) levels in the harvested cell culture media were determined by an EIA method as described by the manufacturer (SIAC; Frederick, Md.). […] The inhibitory effect of the drug was determined using the following equation: […]

[2] = test system: E138A-RTV (HIV reverse transcriptase E138A); assay: Phenotypic susceptibility assay, E138A-RTV; assay type: cell-based, HIV-1; details: site directed mutant
Excerpt: as §1, with “Drug resistance was measured as the amount of drug required to inhibit by 50% the luciferase activity detected in the absence of drug (inhibitory concentration 50%, IC50).” left out
(§3) Host cells were seeded in 10-cm-diameter dishes and were transfected several days after plating with resistance test vector plasmid DNA and the envelope expression vector. […] HIV capsid protein (p24) levels in the harvested cell culture media were determined by an EIA method as described by the manufacturer (SIAC; Frederick, Md.). […] The inhibitory effect of the drug was determined using the following equation: […]
(§4) The E138A mutation alone and in combination with Y188L was introduced into resistance test vectors using the megaprimer method for site-directed mutagenesis (Sakar and Sommar, Ibid.). Resistance test vectors containing the E138A mutation (E138A-RTV) or the E138 mutation along with the […] mutation (E138A-Y188L-RTV) were then tested using the phenotypic assay described earlier and the results were compared to those determined using a genetically defined resistance test vector that was wild type at positions 188 and 138.

E138A-Y188L-RTV = assay: Phenotypic susceptibility assay, E138A-Y188L-RTV; assay type: cell-based, HIV-1; details: site directed mutant
Excerpt: as §1, with “Drug resistance was measured as the amount of drug required to inhibit by 50% the luciferase activity detected in the absence of drug (inhibitory concentration 50%, IC50).” left out
as §3, §4

[3] = test system: G190S-RTV (HIV reverse transcriptase G190S); assay: Phenotypic susceptibility assay, G190S-RTV; assay type: cell-based, HIV-1; details: for change in susceptibility compared to wild type reference RTV: Example 5; for fold change in susceptibility compared to wild type control RTV: values <1 = increased susceptibility
Excerpt: as §1
as §2, with “Md.). Before infection, target cells (293 and 293/T) were plated in cell culture media. Control infections were performed using cell culture media from mock transfections (no DNA) or transfections containing the resistance test vector plasmid DNA without the envelope expression plasmid. One to three or more days after infection the media was removed and cell lysis buffer (Promega) was added to each well.” for “Md.).”
(§5) where RLUluc [drug] is the relative light unit of luciferase activity in infected cells in the presence of drug and RLUluc is the Relative Light Unit of luciferase activity in infected cells in the absence of drug. IC50 values were obtained from the sigmoidal curves that were generated from the data by plotting the percent inhibition of luciferase activity vs. the log10 drug concentration.

K101E-G190S-RTV = assay: Phenotypic susceptibility assay, K101E-G190S-RTV; assay type: cell-based, HIV-1
Excerpt: as §1
as §2, with “Md.). Before infection, target cells (293 and 293/T) were plated in cell culture media. Control infections were performed using cell culture media from mock transfections (no DNA) or transfections containing the resistance test vector plasmid DNA without the envelope expression plasmid. One to three or more days after infection the media was removed and cell lysis buffer (Promega) was added to each well.” for “Md.).”
as §5
The K101E and G190S mutations were introduced alone and in combination into resistance test vectors using the mega-primer method for site-directed mutagenesis (Sakar and Sommar, Ibid.). Resistance test vectors containing the K101E mutation (K101E-RTV), the G190S mutation (G190S-RTV) were then tested using the phenotypic assay described earlier and the results were compared to those determined using a genetically defined resistance test vector that was wild type at positions 101 and 190.

[4] = test system: G190A-RTV (HIV reverse transcriptase G190A); assay: Phenotypic susceptibility assay, G190A-RTV; assay type: cell-based, HIV-1
Excerpt: as §1
as §2, with “Md.). Before infection, target cells (293 and 293/T) were plated in cell culture media. Control infections were performed using cell culture media from mock transfections (no DNA) or transfections containing the resistance test vector plasmid DNA without the envelope expression plasmid. One to three or more days after infection the media was removed and cell lysis buffer (Promega) was added to each well.” for “Md.).”
where RLUluc [drug] is the relative light unit of luciferase activity in infected cells in the presence of drug and RLUluc is the Relative Light Unit of luciferase activity in infected cells in the absence of drug. […]

K101E-G190A-RTV = test system: K101E-G190A-RTV
Excerpt: as §1
as §2, with “Md.). Before infection, target cells (293 and 293/T) were plated in cell culture media. Control infections were performed using cell culture media from mock transfections (no DNA) or transfections containing the resistance test vector plasmid DNA without the envelope expression plasmid. One to three or more days after infection the media was removed and cell lysis buffer (Promega) was added to each well.” for “Md.).”
as §5
(§6) The K101E, K103N and G190A mutations were introduced alone and in combination into resistance test vectors using the mega-primer method for site-directed mutagenesis (Sakar and Sommar, Ibid.).

K103N-G190A-RTV = test system: K103N-G190A-RTV
Excerpt: as §1
as §2, with “Md.). Before infection, target cells (293 and 293/T) were plated in cell culture media. Control infections were performed using cell culture media from mock transfections (no DNA) or transfections containing the resistance test vector plasmid DNA without the envelope expression plasmid. One to three or more days after infection the media was removed and cell lysis buffer (Promega) was added to each well.” for “Md.).”
as §5, §6

[5] = test system: F227L-RTV (HIV reverse transcriptase F227L); assay: Phenotypic susceptibility assay, F227L-RTV; assay type: cell-based, HIV-1; details: values <1 = increased susceptibility
Excerpt: as §1, §2

[6] = test system: L100I-RTV (HIV reverse transcriptase L100I); assay: Phenotypic susceptibility assay, L100I-RTV; assay type: cell-based, HIV-1; details: site directed mutant
Excerpt: as §1
as §3, with “vector. Transfections were performed using a calcium-phosphate precipitation procedure.” for “vector.”
(§7) The mutations Y188L, L100I and K103N were introduced alone and in combinationn into resistance test vectors using the mega-primer method for site-directed mutagenesis (Sakar and Sommar, Ibid.). […] We determined the pattern of phenotypic susceptibility to the NNRTIs, delavirdine, nevlrapine and efavirenz, in all 6 vectors.

[7] = test system: K103N-RTV (HIV reverse transcriptase K103N); assay: Phenotypic susceptibility assay, K103N-RTV; assay type: cell-based, HIV-1; details: site directed mutant
Excerpt: as §1
as §3, with “vector. Transfections were performed using a calcium-phosphate precipitation procedure.” for “vector.”
as §7

[8] = test system: T66I integrase site-directed mutant resistance test vector; assay: Phenotypic susceptibility assay, T66I integrase mutant vector; assay type: cell-based, HIV; details: {}
Experimental: Transfections were performed using a calcium-phosphate precipitation procedure. […] Cell lysates were assayed for luciferase activity (FIG. 3).
The drug inhibition curves are shown in (FIG. 3).
A resistance test vector containing the threonine to isoleucine mutation at position 66 of the integrase protein (T66I) was constructed and tested using the phenotypic assay described earlier.

[9] = values <1 = increased susceptibility

| Structure (SMILES) | fold loss of susceptibility compared to wild type control RTV [1] | fold change in susceptibility compared to wild type control RTV [2] [fold] | fold loss of susceptibility compared to wild type control RTV (E138A-Y188L-RTV) | change in susceptibility compared to wild type reference RTV [3] | fold change in susceptibility compared to wild type control RTV [3] [fold] | fold change in susceptibility compared to wild type control RTV (K101E-G190S-RTV) | fold change in susceptibility compared to wild type control RTV (K101E-G190S-RTV; [9]) [fold] | change in susceptibility compared to wild type reference RTV [4] | change in susceptibility compared to wild type reference RTV ([4]; listed as delviridine) | fold loss of susceptibility compared to wild type control RTV (K101E-G190A-RTV) | fold loss of susceptibility compared to wild type control RTV (K103N-G190A-RTV) | fold change in susceptibility compared to wild type control RTV [5] [fold] | fold loss of susceptibility compared to wild type control RTV [6] [fold] | fold loss of susceptibility compared to wild type control RTV [7] [fold] | increase in susceptibility compared to wild type control RTV [8] | fold change in susceptibility compared to wild type control RTV ([4]; site directed mutant) [fold] |
| --- | --- | --- | --- | --- | --- | --- | --- | --- | --- | --- | --- | --- | --- | --- | --- | --- |
| CC(C)Nc1cccnc1N1CCN(C(=O)c2cc3cc(NS(C)(=O)=O)ccc3[nH]2)CC1 [delavirdine] | 9 fold | 1.6 | 75 fold | slightly more susceptible to delavirdine | 0.5 | 1.4 fold | 0.5 | slightly more susceptible to delavirdine | increased susceptibility | 2 fold | 40 fold | 0.03 | 30 | 50 | 8-10 fold | – |
| O=C1Nc2ccc(Cl)cc2[C@@](C#CC2CC2)(C(F)(F)F)O1 [efavirenz] | 110 fold | 1.4 | 88 fold | – | 8 | greater than 250 fold | 7.6 | – | – | 120 fold | 215 fold | 0.48 | 10 | 30 | 8-10 fold | 8 |
| Cc1ccnc2c1NC(=O)c1cccnc1N2C1CC1 [nevirapine] | greater than 800 fold | 1.3 | greater than 800 fold | markedly less susceptible to nevirapine | 75 | greater than 800 fold | 75 | markedly less susceptible to nevirapine | – | greater than 800 fold | greater than 800 fold | 3 | 3 | 55 | 8-10 fold | – |
